Square brackets hold non-standard residues; d marks the D form. Peptide text beside a SMILES is read from it. * marks the point of attachment. Asu = N[C@@H](CCCCCC(=O)O)C(=O)O; β3hL = CC(C)C[C@H](N)CC(=O)O; NHOH = ON*
Key:
[1] = system: HDAC activity in HeLa cell nuclear extract; assay: Inhibition of HDAC activity in HeLa cell nuclear extract; format: biochemical, human; conditions: for HDAC inhibitory activity in HeLa cell nuclear extract, result in words: numbers only in Figures 2-4 (not readable); for IC50: read-out: HDAC inhibition, IC50, HeLa, at least in duplicate
recombinant human HDAC4 = recombinant human HDAC4 (Homo sapiens, UniProt P56524); assay: Recombinant HDAC isoform inhibition, HDAC4; format: biochemical
recombinant human HDAC5 = recombinant human HDAC5 (Homo sapiens, UniProt Q9UQL6); assay: Recombinant HDAC isoform inhibition, HDAC5; format: biochemical
recombinant human HDAC7 = biological target: T1, recombinant human HDAC7 (Homo sapiens, UniProt Q8WUI4); assay: Recombinant HDAC isoform inhibition, HDAC7; format: biochemical
T1 sequence (Q8WUI4 1-952): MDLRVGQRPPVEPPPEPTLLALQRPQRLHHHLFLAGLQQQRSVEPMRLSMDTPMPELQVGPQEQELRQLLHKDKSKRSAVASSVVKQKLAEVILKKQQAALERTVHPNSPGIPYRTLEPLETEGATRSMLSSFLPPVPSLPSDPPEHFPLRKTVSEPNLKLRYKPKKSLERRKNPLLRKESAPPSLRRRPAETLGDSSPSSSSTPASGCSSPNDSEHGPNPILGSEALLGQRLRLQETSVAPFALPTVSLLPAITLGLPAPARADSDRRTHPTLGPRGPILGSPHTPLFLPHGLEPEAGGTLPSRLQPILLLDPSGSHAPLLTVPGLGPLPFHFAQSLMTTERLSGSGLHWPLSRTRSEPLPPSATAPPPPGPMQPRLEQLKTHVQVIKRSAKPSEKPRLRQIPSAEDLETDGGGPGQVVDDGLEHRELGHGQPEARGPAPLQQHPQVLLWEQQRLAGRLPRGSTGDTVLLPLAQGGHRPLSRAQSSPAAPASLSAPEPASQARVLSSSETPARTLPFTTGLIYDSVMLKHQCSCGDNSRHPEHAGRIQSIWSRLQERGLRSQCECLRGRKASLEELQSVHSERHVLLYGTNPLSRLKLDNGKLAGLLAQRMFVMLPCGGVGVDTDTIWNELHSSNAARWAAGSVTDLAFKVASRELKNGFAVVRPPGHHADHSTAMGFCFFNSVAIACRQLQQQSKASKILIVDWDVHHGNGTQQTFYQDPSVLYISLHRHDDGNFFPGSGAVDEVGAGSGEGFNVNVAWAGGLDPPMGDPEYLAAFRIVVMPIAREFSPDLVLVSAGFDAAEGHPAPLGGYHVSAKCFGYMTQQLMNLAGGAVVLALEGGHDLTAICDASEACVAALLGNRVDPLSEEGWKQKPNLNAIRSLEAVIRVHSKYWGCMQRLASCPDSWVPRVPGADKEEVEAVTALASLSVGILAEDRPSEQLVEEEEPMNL

recombinant human HDAC9 = recombinant human HDAC9 (Homo sapiens, UniProt Q9UKV0); assay: Recombinant HDAC isoform inhibition, HDAC9; format: biochemical
recombinant human HDAC10 = biological target: T2, recombinant human HDAC10 (Homo sapiens, UniProt Q969S8); assay: Recombinant HDAC isoform inhibition, HDAC10; format: biochemical
T2 sequence (Q969S8 1-669): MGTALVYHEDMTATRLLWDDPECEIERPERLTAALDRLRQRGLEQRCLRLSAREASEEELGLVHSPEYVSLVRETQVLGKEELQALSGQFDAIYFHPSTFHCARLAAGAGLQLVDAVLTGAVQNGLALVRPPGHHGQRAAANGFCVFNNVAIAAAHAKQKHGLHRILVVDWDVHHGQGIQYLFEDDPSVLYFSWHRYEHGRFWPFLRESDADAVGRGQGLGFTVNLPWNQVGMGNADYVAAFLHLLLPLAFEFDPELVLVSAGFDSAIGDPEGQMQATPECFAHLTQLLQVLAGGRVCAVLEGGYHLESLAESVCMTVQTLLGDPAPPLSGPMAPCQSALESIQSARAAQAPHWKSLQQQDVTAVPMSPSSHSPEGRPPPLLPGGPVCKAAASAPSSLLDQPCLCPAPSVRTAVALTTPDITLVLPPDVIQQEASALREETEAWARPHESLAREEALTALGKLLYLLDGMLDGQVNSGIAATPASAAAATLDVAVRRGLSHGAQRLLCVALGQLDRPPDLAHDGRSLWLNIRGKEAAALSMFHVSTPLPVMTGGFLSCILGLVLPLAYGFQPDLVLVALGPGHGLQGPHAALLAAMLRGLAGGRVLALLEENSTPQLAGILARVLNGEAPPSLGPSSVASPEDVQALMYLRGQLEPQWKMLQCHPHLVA

recombinant human HDAC6 = biological target: T3, recombinant human HDAC6 (Homo sapiens, UniProt Q9UBN7); assay: Recombinant HDAC isoform inhibition, HDAC6; format: biochemical
T3 sequence (Q9UBN7 1-1215): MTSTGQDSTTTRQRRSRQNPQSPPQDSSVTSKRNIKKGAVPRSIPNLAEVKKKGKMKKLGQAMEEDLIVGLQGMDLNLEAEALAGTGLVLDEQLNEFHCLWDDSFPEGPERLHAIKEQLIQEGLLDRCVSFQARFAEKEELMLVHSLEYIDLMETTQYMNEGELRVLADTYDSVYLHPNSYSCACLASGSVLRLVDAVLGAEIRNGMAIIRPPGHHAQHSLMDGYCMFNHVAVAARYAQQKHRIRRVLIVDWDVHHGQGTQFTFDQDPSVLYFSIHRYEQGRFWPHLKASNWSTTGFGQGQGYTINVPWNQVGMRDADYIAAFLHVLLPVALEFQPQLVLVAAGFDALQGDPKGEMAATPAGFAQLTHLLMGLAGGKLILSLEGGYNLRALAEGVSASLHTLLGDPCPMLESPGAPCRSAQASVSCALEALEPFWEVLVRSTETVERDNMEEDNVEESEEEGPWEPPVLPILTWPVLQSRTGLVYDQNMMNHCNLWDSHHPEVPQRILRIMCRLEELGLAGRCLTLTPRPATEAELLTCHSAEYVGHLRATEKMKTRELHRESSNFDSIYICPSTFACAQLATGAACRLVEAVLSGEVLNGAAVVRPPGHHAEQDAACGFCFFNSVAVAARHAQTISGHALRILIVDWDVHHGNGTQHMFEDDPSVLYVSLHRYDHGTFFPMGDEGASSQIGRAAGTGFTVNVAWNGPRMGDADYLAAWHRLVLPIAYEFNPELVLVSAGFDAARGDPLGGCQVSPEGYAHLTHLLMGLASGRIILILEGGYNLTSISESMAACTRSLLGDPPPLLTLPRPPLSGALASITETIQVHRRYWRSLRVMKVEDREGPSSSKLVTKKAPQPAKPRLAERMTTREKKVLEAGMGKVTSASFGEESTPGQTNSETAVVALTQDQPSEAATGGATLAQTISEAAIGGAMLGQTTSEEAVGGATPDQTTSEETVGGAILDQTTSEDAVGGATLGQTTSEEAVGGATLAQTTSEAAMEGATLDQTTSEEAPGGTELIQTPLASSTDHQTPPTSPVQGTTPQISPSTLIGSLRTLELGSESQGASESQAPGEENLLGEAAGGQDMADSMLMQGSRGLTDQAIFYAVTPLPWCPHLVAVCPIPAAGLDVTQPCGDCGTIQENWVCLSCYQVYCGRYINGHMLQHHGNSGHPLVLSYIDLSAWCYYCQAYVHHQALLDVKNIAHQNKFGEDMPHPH

recombinant human HDAC1 = recombinant human HDAC1 (Homo sapiens, UniProt Q13547); assay: Recombinant HDAC isoform inhibition, HDAC1; format: biochemical
recombinant human HDAC2 = recombinant human HDAC2 (Homo sapiens, UniProt Q92769); assay: Recombinant HDAC isoform inhibition, HDAC2; format: biochemical
recombinant human HDAC3 = recombinant human HDAC3 (Homo sapiens, UniProt O15379); assay: Recombinant HDAC isoform inhibition, HDAC3; format: biochemical
recombinant human HDAC3, sequence (O15379 whole entry, canonical isoform): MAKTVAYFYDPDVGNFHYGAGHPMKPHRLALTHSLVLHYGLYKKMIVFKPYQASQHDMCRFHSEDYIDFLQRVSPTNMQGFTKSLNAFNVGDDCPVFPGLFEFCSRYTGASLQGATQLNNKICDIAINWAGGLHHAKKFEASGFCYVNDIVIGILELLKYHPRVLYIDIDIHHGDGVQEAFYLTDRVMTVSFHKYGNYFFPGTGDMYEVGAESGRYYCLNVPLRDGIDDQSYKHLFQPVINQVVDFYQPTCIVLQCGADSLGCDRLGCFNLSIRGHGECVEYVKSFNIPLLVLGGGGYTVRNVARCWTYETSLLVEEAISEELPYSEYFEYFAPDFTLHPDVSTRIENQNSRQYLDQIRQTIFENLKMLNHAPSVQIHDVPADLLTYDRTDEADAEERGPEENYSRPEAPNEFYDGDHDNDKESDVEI
recombinant human HDAC3, sequence (Q9Y618 395-489 partner limits assumed): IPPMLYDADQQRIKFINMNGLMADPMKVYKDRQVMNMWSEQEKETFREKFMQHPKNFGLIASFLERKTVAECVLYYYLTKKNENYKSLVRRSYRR

recombinant human HDAC5, sequence (Q9UQL6 whole entry, canonical isoform): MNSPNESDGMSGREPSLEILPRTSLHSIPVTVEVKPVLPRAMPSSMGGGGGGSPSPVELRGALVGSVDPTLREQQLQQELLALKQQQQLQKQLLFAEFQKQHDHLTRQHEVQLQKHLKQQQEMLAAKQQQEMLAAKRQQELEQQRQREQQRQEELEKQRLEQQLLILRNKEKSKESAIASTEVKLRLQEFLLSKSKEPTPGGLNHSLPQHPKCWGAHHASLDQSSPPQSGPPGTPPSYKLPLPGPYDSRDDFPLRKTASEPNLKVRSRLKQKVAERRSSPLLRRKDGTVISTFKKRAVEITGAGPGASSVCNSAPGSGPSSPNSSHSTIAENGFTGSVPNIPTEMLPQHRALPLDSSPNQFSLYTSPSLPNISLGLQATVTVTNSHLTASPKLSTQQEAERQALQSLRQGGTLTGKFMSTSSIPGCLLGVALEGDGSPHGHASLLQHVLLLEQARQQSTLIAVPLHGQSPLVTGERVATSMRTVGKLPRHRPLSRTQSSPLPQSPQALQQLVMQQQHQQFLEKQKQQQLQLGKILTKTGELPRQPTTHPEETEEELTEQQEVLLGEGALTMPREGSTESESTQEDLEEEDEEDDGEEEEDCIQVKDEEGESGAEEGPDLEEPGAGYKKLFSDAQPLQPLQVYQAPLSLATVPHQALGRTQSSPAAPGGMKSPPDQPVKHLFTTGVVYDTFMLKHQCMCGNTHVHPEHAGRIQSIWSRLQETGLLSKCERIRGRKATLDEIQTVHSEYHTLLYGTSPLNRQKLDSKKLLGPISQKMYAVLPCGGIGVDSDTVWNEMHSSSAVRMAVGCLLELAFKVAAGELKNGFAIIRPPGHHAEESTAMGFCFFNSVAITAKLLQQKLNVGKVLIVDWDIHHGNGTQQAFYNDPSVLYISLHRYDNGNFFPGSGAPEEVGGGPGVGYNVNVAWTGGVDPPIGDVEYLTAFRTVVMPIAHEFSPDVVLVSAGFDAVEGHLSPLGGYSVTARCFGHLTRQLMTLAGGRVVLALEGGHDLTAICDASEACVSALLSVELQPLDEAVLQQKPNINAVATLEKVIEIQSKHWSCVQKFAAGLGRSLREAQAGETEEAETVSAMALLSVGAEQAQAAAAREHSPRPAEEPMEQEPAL
recombinant human HDAC4, sequence (P56524 whole entry, canonical isoform): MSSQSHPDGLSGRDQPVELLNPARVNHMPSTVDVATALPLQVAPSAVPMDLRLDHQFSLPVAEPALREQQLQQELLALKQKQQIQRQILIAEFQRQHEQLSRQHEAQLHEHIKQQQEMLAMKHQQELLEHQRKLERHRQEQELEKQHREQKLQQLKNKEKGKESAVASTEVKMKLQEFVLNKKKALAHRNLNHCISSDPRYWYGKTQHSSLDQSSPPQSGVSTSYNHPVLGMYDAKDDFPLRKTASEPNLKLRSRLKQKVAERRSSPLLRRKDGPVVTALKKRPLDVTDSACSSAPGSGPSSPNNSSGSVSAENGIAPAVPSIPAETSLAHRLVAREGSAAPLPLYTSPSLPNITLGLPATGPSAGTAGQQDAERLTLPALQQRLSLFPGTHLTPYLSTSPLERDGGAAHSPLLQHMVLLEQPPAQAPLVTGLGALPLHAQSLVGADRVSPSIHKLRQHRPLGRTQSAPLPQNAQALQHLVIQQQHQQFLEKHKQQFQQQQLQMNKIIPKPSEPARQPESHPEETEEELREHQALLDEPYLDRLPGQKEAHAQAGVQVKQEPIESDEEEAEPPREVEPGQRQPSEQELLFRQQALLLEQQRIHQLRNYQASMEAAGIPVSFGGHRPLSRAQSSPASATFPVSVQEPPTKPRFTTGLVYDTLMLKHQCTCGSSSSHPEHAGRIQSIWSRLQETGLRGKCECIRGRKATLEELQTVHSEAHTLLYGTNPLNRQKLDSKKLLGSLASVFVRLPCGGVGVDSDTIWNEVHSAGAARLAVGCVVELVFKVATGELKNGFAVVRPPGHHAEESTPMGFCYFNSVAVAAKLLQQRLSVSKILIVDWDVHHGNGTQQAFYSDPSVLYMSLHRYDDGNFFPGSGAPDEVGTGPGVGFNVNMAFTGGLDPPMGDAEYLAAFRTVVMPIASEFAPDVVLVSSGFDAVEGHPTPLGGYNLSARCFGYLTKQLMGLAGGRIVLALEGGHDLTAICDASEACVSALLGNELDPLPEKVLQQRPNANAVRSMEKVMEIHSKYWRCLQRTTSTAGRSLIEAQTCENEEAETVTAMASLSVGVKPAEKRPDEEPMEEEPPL
recombinant human HDAC9, sequence (Q9UKV0 whole entry, canonical isoform): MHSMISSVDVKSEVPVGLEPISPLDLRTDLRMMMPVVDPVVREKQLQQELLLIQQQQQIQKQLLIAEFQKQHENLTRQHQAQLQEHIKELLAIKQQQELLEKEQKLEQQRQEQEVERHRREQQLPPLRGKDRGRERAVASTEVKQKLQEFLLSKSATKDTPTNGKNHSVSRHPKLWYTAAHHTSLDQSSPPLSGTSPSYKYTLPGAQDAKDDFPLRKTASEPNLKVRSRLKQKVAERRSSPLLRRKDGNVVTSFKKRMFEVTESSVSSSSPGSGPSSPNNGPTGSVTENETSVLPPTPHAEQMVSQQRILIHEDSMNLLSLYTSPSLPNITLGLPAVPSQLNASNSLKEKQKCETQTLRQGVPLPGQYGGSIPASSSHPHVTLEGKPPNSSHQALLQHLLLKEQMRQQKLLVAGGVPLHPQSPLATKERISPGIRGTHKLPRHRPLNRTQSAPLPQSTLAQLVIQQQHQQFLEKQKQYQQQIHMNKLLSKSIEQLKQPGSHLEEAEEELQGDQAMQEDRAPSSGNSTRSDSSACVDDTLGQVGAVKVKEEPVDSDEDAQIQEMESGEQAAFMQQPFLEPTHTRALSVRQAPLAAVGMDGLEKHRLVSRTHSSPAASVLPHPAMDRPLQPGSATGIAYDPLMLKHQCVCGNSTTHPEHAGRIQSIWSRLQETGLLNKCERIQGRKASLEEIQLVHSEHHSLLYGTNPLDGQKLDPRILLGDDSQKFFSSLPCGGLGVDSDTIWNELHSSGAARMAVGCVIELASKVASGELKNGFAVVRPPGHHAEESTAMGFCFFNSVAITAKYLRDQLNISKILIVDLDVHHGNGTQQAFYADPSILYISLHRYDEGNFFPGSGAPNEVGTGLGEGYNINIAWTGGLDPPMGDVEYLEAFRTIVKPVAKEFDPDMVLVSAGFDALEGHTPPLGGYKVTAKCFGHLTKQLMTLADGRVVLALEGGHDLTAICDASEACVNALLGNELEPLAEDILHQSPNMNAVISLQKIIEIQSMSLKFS
recombinant human HDAC1, sequence (Q13547 whole entry, canonical isoform): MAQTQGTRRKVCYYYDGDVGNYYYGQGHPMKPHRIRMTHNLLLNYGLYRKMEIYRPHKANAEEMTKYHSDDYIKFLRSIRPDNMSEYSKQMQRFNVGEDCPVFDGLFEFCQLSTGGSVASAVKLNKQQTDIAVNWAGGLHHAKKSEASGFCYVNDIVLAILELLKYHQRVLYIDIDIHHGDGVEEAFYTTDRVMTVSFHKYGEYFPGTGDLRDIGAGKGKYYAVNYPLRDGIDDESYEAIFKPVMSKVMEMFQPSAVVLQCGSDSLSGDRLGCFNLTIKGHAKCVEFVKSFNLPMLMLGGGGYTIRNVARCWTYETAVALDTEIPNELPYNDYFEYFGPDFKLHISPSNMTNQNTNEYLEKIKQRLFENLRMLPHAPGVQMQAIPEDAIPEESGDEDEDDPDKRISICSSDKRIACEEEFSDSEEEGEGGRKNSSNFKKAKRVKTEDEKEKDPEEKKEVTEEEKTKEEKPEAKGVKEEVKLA
recombinant human HDAC2, sequence (Q92769 whole entry, canonical isoform): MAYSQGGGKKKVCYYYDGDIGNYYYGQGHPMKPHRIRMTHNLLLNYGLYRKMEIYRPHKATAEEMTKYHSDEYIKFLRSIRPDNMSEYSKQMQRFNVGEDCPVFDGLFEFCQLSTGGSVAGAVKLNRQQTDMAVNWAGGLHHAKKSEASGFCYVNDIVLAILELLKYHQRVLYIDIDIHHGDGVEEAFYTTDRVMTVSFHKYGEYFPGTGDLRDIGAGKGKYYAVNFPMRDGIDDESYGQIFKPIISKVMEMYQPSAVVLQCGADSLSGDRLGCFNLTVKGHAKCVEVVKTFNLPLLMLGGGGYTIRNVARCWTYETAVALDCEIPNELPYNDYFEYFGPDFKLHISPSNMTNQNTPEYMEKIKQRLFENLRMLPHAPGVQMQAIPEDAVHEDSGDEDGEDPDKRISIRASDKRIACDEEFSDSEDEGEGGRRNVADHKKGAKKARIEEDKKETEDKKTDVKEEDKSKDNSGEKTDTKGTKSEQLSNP

| IC50 [1] | IC50 (recombinant human HDAC4) | IC50 (recombinant human HDAC5) | IC50 (recombinant human HDAC7) | IC50 (recombinant human HDAC9) | IC50 (recombinant human HDAC10) | IC50 (recombinant human HDAC6) | IC50 (recombinant human HDAC1) | IC50 (recombinant human HDAC2) | IC50 (recombinant human HDAC3) | Compound | HDAC inhibitory activity in HeLa cell nuclear extract, result in words [1] | Increase of potency relative to the parent ethylketones 3 and 4 [1] |
| --- | --- | --- | --- | --- | --- | --- | --- | --- | --- | --- | --- | --- |
| 9 nM | > 10000 nM | 50 nM | > 10000 nM | 22 nM | – | – | – | – | – | CCC(=O)CCCCC[C@@H]1NC(=O)[C@@H]2CCCN2C(=O)C[C@H](CC(C)C)NC(=O)[C@H](Cc2c[nH]c3ccccc23)NC1=O [compound 4] | low nanomolar IC50 values comparable to that of apicidin | – |
| – | > 10000 nM | 2.5 nM | > 10000 nM | 0.6 nM | 0.2 nM | – | – | – | – | CC(C)C[C@H]1CC(=O)N[C@@H](C)C(=O)N[C@@H](CCCCCC(=O)NO)C(=O)N[C@@H](Cc2c[nH]c3ccccc23)C(=O)N1 [3a] (cyclo([Asu](NHOH)W[β3hL]A)) | – | – |
| – | > 10000 nM | 60 nM | > 10000 nM | 25 nM | 28 nM | > 10000 nM | – | – | – | CCC(=O)CCCCC[C@@H]1NC(=O)[C@H](C)N(C)C(=O)C[C@H](CC(C)C)NC(=O)[C@H](Cc2c[nH]c3ccccc23)NC1=O [3h] | modest loss of potency | – |
| 19 nM | > 10000 nM | 70 nM | > 10000 nM | 30 nM | 20 nM | – | 35 nM | 30 nM | – | CCC(=O)CCCCC[C@@H]1NC(=O)[C@H](C)NC(=O)C[C@H](CC(C)C)NC(=O)[C@H](Cc2c[nH]c3ccccc23)NC1=O [compound 3] | – | – |
| < 1 nM | > 10000 nM | – | > 10000 nM | – | – | 35 nM | 0.6 nM | – | 35 nM | CC(C)C[C@H]1CC(=O)N2CCC[C@H]2C(=O)N[C@@H](CCCCCC(=O)NO)C(=O)N[C@@H](Cc2c[nH]c3ccccc23)C(=O)N1 [4a] (cyclo([Asu](NHOH)W[β3hL]P)) | – | at least 10 fold |
| – | > 10000 nM | 700 nM | > 10000 nM | 550 nM | 280 nM | – | – | – | – | CC(C)C[C@H]1CC(=O)N[C@@H](C)C(=O)N[C@@H](CCCCCC(=O)O)C(=O)N[C@@H](Cc2c[nH]c3ccccc23)C(=O)N1 [3b] (cyclo([Asu]W[β3hL]A)) | significantly decreased potency | – |
| – | – | – | – | – | – | – | – | – | – | CCC(=O)CCCCC[C@@H]1NC(=O)C[C@H](C)NC(=O)C[C@H](CC(C)C)NC(=O)[C@H](Cc2c[nH]c3ccccc23)NC1=O [compound 5] | high nanomolar activity | – |

Source: article PMC2751792 (Journal of the American Chemical Society, 2009)
